Experimental data published in patent publication US9694016B2 (Novartis AG, priority 2013, dated 2017).
Where two headings read alike, the source gives them in different places.

Biological target: b-Raf (V600E) (Homo sapiens (Human), UniProt P15056, V600E)
Settings: read-out: b-Raf IC-50, AlphaScreen
[1] = 60 min pre-incubation, 3 hours reaction
[2] = 60 min pre-incubation, reaction 3 hours at room temperature

Sequence of b-Raf (V600E) (P15056 whole entry V600E): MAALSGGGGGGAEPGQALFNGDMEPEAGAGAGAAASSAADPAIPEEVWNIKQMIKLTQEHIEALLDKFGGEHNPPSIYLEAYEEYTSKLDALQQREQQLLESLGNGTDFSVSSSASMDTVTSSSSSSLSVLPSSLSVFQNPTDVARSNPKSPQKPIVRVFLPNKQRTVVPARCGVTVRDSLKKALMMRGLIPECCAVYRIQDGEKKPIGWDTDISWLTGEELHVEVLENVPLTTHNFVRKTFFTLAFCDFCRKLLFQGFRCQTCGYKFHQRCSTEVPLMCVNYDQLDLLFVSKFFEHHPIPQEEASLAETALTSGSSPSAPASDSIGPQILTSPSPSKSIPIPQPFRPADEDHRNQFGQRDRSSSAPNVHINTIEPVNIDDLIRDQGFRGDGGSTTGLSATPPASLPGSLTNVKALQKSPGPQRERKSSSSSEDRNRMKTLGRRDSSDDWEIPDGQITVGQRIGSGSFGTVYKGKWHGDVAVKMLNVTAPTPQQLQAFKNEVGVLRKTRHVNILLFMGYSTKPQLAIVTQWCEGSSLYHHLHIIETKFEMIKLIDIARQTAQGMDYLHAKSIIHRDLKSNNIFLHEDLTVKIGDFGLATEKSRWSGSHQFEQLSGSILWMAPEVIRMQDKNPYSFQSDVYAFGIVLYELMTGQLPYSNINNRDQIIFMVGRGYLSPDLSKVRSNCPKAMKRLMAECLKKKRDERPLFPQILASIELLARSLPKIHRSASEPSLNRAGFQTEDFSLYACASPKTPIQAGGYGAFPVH

Compound | IC50 [1] [nM] | IC50 [2] [nM] | further results
Cc1ccc(NC(=O)c2cc(C(F)(F)F)nn2C)cc1-c1cc(N2CCOCC2)c(=O)n(C)c1 [Example 369, 1-methyl-N-(4-methyl-3-(1-methyl-5-morpholino-6-oxo-1,6-dihydropyridin-3-yl)phenyl)-3-(trifluoromethyl)-1H-pyrazole-5-carboxamide] |  |  | IC50 (Table 2, 3 hours reaction): 53.1 nM
Cc1ccc(NC(=O)c2cccc(OC(F)(F)F)c2)cc1-c1cc(N2CCOCC2)nc(N2CCOCC2)n1 [Example 22, N-(3-(2,6-dimorpholinopyrimidin-4-yl)-4-methylphenyl)-3-(trifluoromethoxy)benzamide] |  |  | IC50 (Table 2, 3 hours reaction): 0.7 nM
CCN(C)c1cc(C(=O)Nc2ccc(C)c(-c3cc(N4CCOCC4)c(=O)n(C)c3)c2)ccn1 [Example 453, 2-(ethyl(methyl)amino)-N-(4-methyl-3-(1-methyl-5-morpholino-6-oxo-1,6-dihydropyridin-3-yl)phenyl)isonicotinamide] | 4.3 |  | 
CCOc1nnc(-c2cc(NC(=O)c3cnnc(C(C)(C)C#N)c3)ccc2C)cc1N1CCOCC1 [Example 567, 6-(2-cyanopropan-2-yl)-N-(3-(6-ethoxy-5-morpholinopyridazin-3-yl)-4-methylphenyl)pyridazine-4-carboxamide] | 2 |  | 
CCOc1nnc(-c2cc(NC(=O)c3ccnc(C(F)(F)CC)c3)cnc2C)cc1N1CCOCC1 [Example 617, 2-(1,1-difluoropropyl)-N-(5-(6-ethoxy-5-morpholinopyridazin-3-yl)-6-methylpyridin-3-yl)isonicotinamide] | 3.5 |  | 
Cc1ccc(NC(=O)c2ccnc(C(C)(C)F)c2)cc1-c1cc(OCCO)nc(N2CCOCC2)c1 [Example 1158, 2-(2-fluoropropan-2-yl)-N-(3-(2-(2-hydroxyethoxy)-6-morpholinopyridin-4-yl)-4-methylphenyl)isonicotinamide] |  | 1.63 | 
Cc1ncc(NC(=O)c2cnnc(C(F)(F)F)c2)cc1-c1cc(N2CCOCC2)c(OC2CCOCC2)nn1 [Example 631, N-(6-methyl-5-(5-morpholino-6-((tetrahydro-2H-pyran-4-yl)oxy)pyridazin-3-yl)pyridin-3-yl)-6-(trifluoromethyl)pyridazine-4-carboxamide] | 2.7 |  | 
CCOc1ncc(-c2cc(C(=O)Nc3cc(C(F)(F)F)ncc3F)ccc2C)cc1N1CCOCC1 [Example 961, 3-(6-ethoxy-5-morpholinopyridin-3-yl)-N-(5-fluoro-2-(trifluoromethyl)pyridin-4-yl)-4-methylbenzamide] |  | 1.83 | 
Cc1ccc(NC(=O)c2ccnc(C(C)(C)C#N)c2)cc1-c1nc2c(c(N3CCOCC3)n1)CCNC2 [Example 865, 2-(2-cyanopropan-2-yl)-N-(4-methyl-3-(4-morpholino-5,6,7,8-tetrahydropyrido[3,4-d]pyrimidin-2-yl)phenyl)isonicotinamide] |  | 3700 | 
Cc1ccc(NC(=O)c2ccnc(C(C)(C)C#N)c2)cc1-c1cc(OC2CCOCC2)nc(N2CCOCC2)c1 [Example 1152, 2-(2-cyanopropan-2-yl)-N-(4-methyl-3-(2-morpholino-6-((tetrahydro-2H-pyran-4-yl)oxy)pyridin-4-yl)phenyl)isonicotinamide] |  | 1.25 | 
Cc1ccc(NC(=O)c2cccc(C(F)F)c2)cc1-c1cc(N2CCOCC2)nc(N2CCOCC2)c1 [Example 1116, 3-(difluoromethyl)-N-(3-(2,6-dimorpholinopyridin-4-yl)-4-methylphenyl)benzamide] |  | 0.82 | 
Cc1ncc(NC(=O)c2cnnc(C(F)(F)F)c2)cc1-c1cc(N2CCOCC2)nc(N2CC(C)(O)C2)c1 [Example 1107, N-(2′-(3-hydroxy-3-methylazetidin-1-yl)-2-methyl-6′-morpholino-[3,4′-bipyridin]-5-yl)-6-(trifluoromethyl)pyridazine-4-carboxamide] |  | 13.4 | 
Cc1ncc(NC(=O)c2ccnc(C(C)(C)O)c2)cc1-c1cnc(OC(F)F)c(N2CCOCC2)c1 [Example 979, N-(6′-(difluoromethoxy)-2-methyl-5′-morpholino-[3,3′-bipyridin]-5-yl)-2-(2-hydroxypropan-2-yl)isonicotinamide] |  | 13.6 | 
CCOc1nnc(-c2cc(NC(=O)c3cc(C(F)(F)F)ccn3)cnc2C)cc1N1CCOCC1 [Example 611, N-(5-(6-ethoxy-5-morpholinopyridazin-3-yl)-6-methylpyridin-3-yl)-4-(trifluoromethyl)picolinamide] | 1.3 |  | 
CNC(=O)c1ncc(-c2cc(NC(=O)c3ccnc(C(C)(F)F)c3)ccc2C)cc1N1CCOCC1 [Example 987, 5-(5-(2-(1,1-difluoroethyl)isonicotinamido)-2-methylphenyl)-N-methyl-3-morpholinopicolinamide] |  | 2.63 | 
Cc1ncc(NC(=O)c2cc(C(C)(C)F)ccn2)cc1-c1cnc(OC2CC3(COC3)C2)c(N2CCOCC2)c1 [Example 968, N-(6′-(2-oxaspiro[3.3]heptan-6-yloxy)-2-methyl-5′-morpholino-[3,3′-bipyridin]-5-yl)-4-(2-fluoropropan-2-yl)picolinamide] |  | 3.72 | 
Cc1ccc(NC(=O)c2ccnc(C(F)F)c2)cc1-c1cc(OC2CCOCC2)nc(N2CCOCC2)c1 [Example 1151, 2-(difluoromethyl)-N-(4-methyl-3-(2-morpholino-6-((tetrahydro-2H-pyran-4-yl)oxy)pyridin-4-yl)phenyl)isonicotinamide] |  | 0.6 | 
Cc1ccc(NC(=O)c2ccnc(C(C)(C)F)c2)cc1-c1cc(N2CCOCC2)c(OC2CCOCC2)nn1 [Example 578, 2-(2-fluoropropan-2-yl)-N-(4-methyl-3-(5-morpholino-6-((tetrahydro-2H-pyran-4-yl)oxy)pyridazin-3-yl)phenyl)isonicotinamide] | 0.8 |  | 
Cc1ncc(NC(=O)c2ccnc(S(C)(=O)=O)c2)cc1-c1cc(N2CCOCC2)n2nccc2n1 [Example 807, N-(6-methyl-5-(7-morpholinopyrazolo[1,5-a]pyrimidin-5-yl)pyridin-3-yl)-2-(methylsulfonyl)isonicotinamide] | 8.8 |  | 
Cc1ccc(NC(=O)c2ccnc(C(C)(F)F)c2)cc1-c1cc(N2CCOCC2)c(=O)n(C)n1 [Example 657, 2-(1,1-difluoroethyl)-N-(4-methyl-3-(1-methyl-5-morpholino-6-oxo-1,6-dihydropyridazin-3-yl)phenyl)isonicotinamide] | 1.1 |  | 
Cc1ccc(NC(=O)c2ccnc(C(C)(C)F)c2)cc1-c1cc(N2C3CCC2COC3)c(=O)n(C)n1 [Example 668, N-(3-(5-(3-oxa-8-azabicyclo[3.2.1]octan-8-yl)-1-methyl-6-oxo-1,6-dihydropyridazin-3-yl)-4-methylphenyl)-2-(2-fluoropropan-2-yl)isonicotinamide] | 4.1 |  | 
Cc1ccc(NC(=O)c2cccc(C(F)(F)F)c2)cc1-c1cc(N2CCOCC2)cnn1 [Example 59, N-(4-methyl-3-(5-morpholinopyridazin-3-yl)phenyl)-3-(trifluoromethyl)benzamide] |  |  | IC50 (Table 2, 3 hours reaction): 2.8 nM
Cc1ncc(NC(=O)c2cnnc(C3CC3)c2)cc1-c1cnc(N(C)C)c(N2CCOCC2)c1 [Example 271, 6-cyclopropyl-N-(6′-(dimethylamino)-2-methyl-5′-morpholino-[3,3′-bipyridin]-5-yl)pyridazine-4-carboxamide] |  |  | IC50 (Table 2, 3 hours reaction): 0.7 nM
Cc1ncc(NC(=O)c2ccnc(C(C)(C)C#N)c2)cc1-c1cnc(OCC(F)F)c(N2CCOCC2)c1 [Example 228, 2-(2-cyanopropan-2-yl)-N-(6′-(2,2-difluoroethoxy)-2-methyl-5′-morpholino-[3,3′-bipyridin]-5-yl)isonicotinamide] |  |  | IC50 (Table 2, 3 hours reaction): 4.7 nM
